Data taken from paper PMC10096648, “A conserved hymenopteran-specific family of cytochrome P450s protects bee pollinators from toxic nectar alkaloids” (Science Advances, 2023).

Legend:
[1] = molecular target: T1, CYP336A1 (Apis mellifera, UniProt A0A8U0WT43, D298G); assay: fluorogenic model substrate assay, recombinant microsomes; type: biochemical; conditions: NADPH; activity present only in the mutant
T1 construct: gene LOC724211; codon-optimised; microsomes of baculovirus-infected High Five insect cells, coexpressed with A. mellifera NADPH-cytochrome P450 reductase

[2] = substrate: CN1CCC[C@H]1c1cccnc1; assay: nicotine depletion by UPLC-MS/MS, recombinant microsomes; type: biochemical, Apis mellifera; conditions: NADPH regeneration system, pH 7.6, 30°C, 30 min, 0.78-100 μM nicotine

T1 sequence (A0A8U0WT43 entry or part of it D298G): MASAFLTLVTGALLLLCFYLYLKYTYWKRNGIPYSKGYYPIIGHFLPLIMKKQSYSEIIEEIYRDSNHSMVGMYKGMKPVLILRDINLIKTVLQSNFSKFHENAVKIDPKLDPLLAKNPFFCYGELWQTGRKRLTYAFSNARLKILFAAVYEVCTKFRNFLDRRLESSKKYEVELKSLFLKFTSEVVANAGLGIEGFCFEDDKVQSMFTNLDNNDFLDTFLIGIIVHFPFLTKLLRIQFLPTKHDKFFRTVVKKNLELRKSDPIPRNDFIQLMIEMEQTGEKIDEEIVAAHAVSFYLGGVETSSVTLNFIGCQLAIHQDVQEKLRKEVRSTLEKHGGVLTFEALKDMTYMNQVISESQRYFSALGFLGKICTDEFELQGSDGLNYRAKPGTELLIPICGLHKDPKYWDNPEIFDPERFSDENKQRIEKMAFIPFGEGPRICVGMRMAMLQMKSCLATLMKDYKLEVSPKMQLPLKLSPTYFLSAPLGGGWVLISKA

Molecule: O=c1cc(C(F)(F)F)c2ccc(OCc3ccccc3)cc2o1 [BFC, 7-benzyloxy-4-(trifluoromethyl)coumarin]
- fluorogenic model substrate assay, recombinant microsomes [1]: the D298G substitution leads to significant activity toward BFC

B1: CYP336A1 (Apis mellifera) (protein)
chain: MASAFLTLVTGALLLLCFYLYLKYTYWKRNGIPYSKGYYPIIGHFLPLIMKKQSYSEIIEEIYRDSNHSMVGMYKGMKPVLILRDINLIKTVLQSNFSKFHENAVKIDPKLDPLLAKNPFFCYGELWQTGRKRLTYAFSNARLKILFAAVYEVCTKFRNFLDRRLESSKKYEVELKSLFLKFTSEVVANAGLGIEGFCFEDDKVQSMFTNLDNNDFLDTFLIGIIVHFPFLTKLLRIQFLPTKHDKFFRTVVKKNLELRKSDPIPRNDFIQLMIEMEQTGEKIDEEIVAAHAVSFYLDGVETSSVTLNFIGCQLAIHQDVQEKLRKEVRSTLEKHGGVLTFEALKDMTYMNQVISESQRYFSALGFLGKICTDEFELQGSDGLNYRAKPGTELLIPICGLHKDPKYWDNPEIFDPERFSDENKQRIEKMAFIPFGEGPRICVGMRMAMLQMKSCLATLMKDYKLEVSPKMQLPLKLSPTYFLSAPLGGGWVLISKA
notes: codon-optimised; microsomes of baculovirus-infected High Five insect cells, coexpressed with A. mellifera NADPH-cytochrome P450 reductase
- Km [2]: 12.77 µM
